Experiments:
Type in all cases: in vivo
[1] = system: Bemisia tabaci (Cotton White Fly); assay: Bemisia tabaci (Cotton White Fly): Feeding/Contact Activity; settings: foliar, 144 h, application rate of 200 ppm, cotton leaf discs sprayed, adult white flies, 6 days after incubation
Procedure: Cotton leaf discs were placed on agar in 24-well microtiter plates and sprayed with aqueous test solutions prepared from 10,000 ppm DMSO stock solutions. After drying the leaf discs were infested with adult white flies. The samples were checked for mortality 6 days after incubation.

[2] = system: Diabrotica Balteata (Corn Root Worm); assay: Diabrotica balteata (Corn Root Worm) maize sprout spray test; settings: 96 h, application rate of 200 ppm, maize sprouts sprayed, L2 larvae, 4 days after infestation, read-out: effect in at least one of the two categories (mortality or growth inhibition)
Procedure: Maize sprouts placed onto an agar layer in 24-well microtiter plates were treated with aqueous test solutions prepared from 10,000 ppm DMSO stock solutions by spraying. After drying, the plates were infested with L2 larvae (6 to 10 per well). The samples were assessed for mortality and growth inhibition in comparison to untreated samples 4 days after infestation.

[3] = system: Euschistus heros (Neotropical Brown Stink Bug); assay: Euschistus heros (Neotropical Brown Stink Bug) soybean leaf spray test; settings: 120 h, application rate of 200 ppm, soybean leaves sprayed, N2 nymphs, 5 days after infestation, read-out: effect in at least one of the two categories (mortality or growth inhibition)
Procedure: Soybean leaves on agar in 24-well microtiter plates were sprayed with aqueous test solutions prepared from 10,000 ppm DMSO stock solutions. After drying the leaves were infested with N2 nymphs. The samples were assessed for mortality and growth inhibition in comparison to untreated samples 5 days after infestation.

[4] = system: Frankliniella occidentalis (Western Flower Thrips); assay: Frankliniella occidentalis (Western Flower Thrips): Feeding/Contact Activity; settings: foliar, 168 h, application rate of 200 ppm, sunflower leaf discs sprayed, population of mixed ages, 7 days after infestation
Procedure: Sunflower leaf discs were placed on agar in 24-well microtiter plates and sprayed with aqueous test solutions prepared from 10,000 DMSO stock solutions. After drying the leaf discs were infested with a Frankliniella population of mixed ages. The samples were assessed for mortality 7 days after infestation.

[5] = system: Myzus persicae (Green Peach Aphid); assay: Myzus persicae (Green Peach Aphid): Feeding/Contact Activity; settings: foliar, 144 h, application rate of 200 ppm, sunflower leaf discs sprayed, aphid population of mixed ages, 6 days after infestation
Procedure: Sunflower leaf discs were placed onto agar in a 24-well microtiter plate and sprayed with aqueous test solutions prepared from 10,000 ppm DMSO stock solutions. After drying, the leaf discs were infested with an aphid population of mixed ages. The samples were assessed for mortality 6 days after infestation.

[6] = system: Myzus persicae (Green Peach Aphid); assay: Myzus persicae (Green Peach Aphid). Systemic Activity; settings: 144 h, test rate of 24 ppm, roots of infested pea seedlings in test solution, 6 days
Procedure: Roots of pea seedlings infested with an aphid population of mixed ages were placed directly into aqueous test solutions prepared from 10,000 DMSO stock solutions. The samples were assessed for mortality 6 days after placing seedlings into test solutions.

[7] = system: Plutella xylostella (Diamond Back Moth); assay: Plutella xylostella (Diamond Back Moth) artificial diet test; settings: 120 h, application rate of 200 ppm, L2 larvae, 5 days after infestation, read-out: effect in at least one of the two categories (mortality or growth inhibition)
Procedure: 24-well microtiter plates with artificial diet were treated with aqueous test solutions prepared from 10,000 ppm DMSO stock solutions by pipetting. After drying, the plates were infested with L2 larvae (10 to 15 per well). The samples were assessed for mortality and growth inhibition in comparison to untreated samples 5 days after infestation.

[8] = system: Spodoptera littoralis (Egyptian Cotton Leaf Worm); assay: Spodoptera littoralis (Egyptian Cotton Leaf Worm) systemic lettuce test; settings: 144 h, test rate of 12.5 ppm, compound in agar taken up by lettuce roots, eggs, 6 days after infestation, read-out: effect in at least one of the three categories (mortality, anti-feeding, or growth inhibition)
Excerpt: Test compounds were applied by pipette from 10,000 ppm DMSO stock solutions into 24-well plates and mixed with agar. Lettuce seeds were placed onto the agar and the multi well plate was closed by another plate which contained also agar. After 7 days the compound was absorbed by the roots and the lettuce grew into the lid plate. The lettuce leaves were then cut off into the lid plate. Spodoptera eggs were pipetted through a plastic stencil onto a humid gel blotting paper and the lid plate was closed with it. The samples were assessed for mortality, anti-feedant effect and growth inhibition in comparison to untreated samples 6 days after infestation.

CCS(=O)(=O)c1cc(C2(C#N)CC2)cnc1-c1nc2cc(C(F)(F)F)nnc2n1C [Example H-1, 1-[5-Ethylsulfonyl-6-[7-methyl-3-(trifluoromethyl)imidazo[4,5-c]pyridazin-6-yl]-3-pyridyl]cyclopropanecarbonitrile]
≥ 80%: mortality at 200 ppm [1] | percent effect (mortality or growth inhibition) at 200 ppm [2] | percent effect (mortality or growth inhibition) at 200 ppm [3] | mortality at 200 ppm [4] | mortality at 200 ppm [5] | mortality at 24 ppm [6] | percent effect (mortality or growth inhibition) at 200 ppm [7] | percent effect (mortality, anti-feeding or growth inhibition) at 12.5 ppm [8]

CCSc1cc(C2(C#N)CC2)cnc1-c1nc2cc(C(F)(F)F)nnc2n1C [Example H-2, 1-[5-ethylsulfanyl-6-[7-methyl-3-(trifluoromethyl)imidazo[4,5-c]pyridazin-6-yl]-3-pyridyl]cyclopropanecarbonitrile]
≥ 80%: percent effect (mortality or growth inhibition) at 200 ppm [2] | percent effect (mortality or growth inhibition) at 200 ppm [3] | mortality at 200 ppm [4] | percent effect (mortality or growth inhibition) at 200 ppm [7]

Reference: US12421237B2, “Pesticidally active heterocyclic derivatives with sulfur containing substituents” (SYNGENTA PARTICIPATIONS AG, priority 2016, dated 2025)
